The source made the active and inactive calls.
Assays:
[1] = target: T1, Heat shock factor protein 1 (Mus musculus, UniProt P38532); assay: inhibition of MG132-induced HSE-luciferase signal, confirmation, cell-based, NIH3T3, luminescence, dose retest (AID 2382); assay type: functional;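 further: NIH3T3 fibroblasts with HSF1-driven luciferase reporter stressed by proteasome inhibitor MG132; luminescence from HSF1-driven luciferase expression after 8 hours of MG132 stress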
T1 sequence (P38532 whole entry): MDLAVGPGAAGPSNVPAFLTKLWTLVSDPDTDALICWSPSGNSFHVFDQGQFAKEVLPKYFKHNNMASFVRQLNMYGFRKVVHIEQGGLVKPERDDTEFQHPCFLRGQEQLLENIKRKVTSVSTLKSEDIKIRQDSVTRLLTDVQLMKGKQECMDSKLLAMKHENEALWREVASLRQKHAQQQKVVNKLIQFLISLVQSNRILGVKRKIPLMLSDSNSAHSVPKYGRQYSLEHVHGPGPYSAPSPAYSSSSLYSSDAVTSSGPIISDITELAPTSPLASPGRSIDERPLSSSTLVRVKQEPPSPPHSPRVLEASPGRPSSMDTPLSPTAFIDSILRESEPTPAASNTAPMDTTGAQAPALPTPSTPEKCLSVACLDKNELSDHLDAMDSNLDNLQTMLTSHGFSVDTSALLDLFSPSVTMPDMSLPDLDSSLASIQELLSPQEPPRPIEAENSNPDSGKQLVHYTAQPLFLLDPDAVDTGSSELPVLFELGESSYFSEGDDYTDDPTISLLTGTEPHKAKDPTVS

H9c2 = assay: cells; assay type: functional, cell-based; conditions: Rattus norvegicus, H9c2, Myocardium
Protein RecA = target: T2, Protein RecA (Mycobacterium tuberculosis, UniProt P9WHJ3); assay: Fluorescence Cell-Free Homogeneous Dose Retest to Identify Inhibitors of RecA-Intein Splicing Activity. [Related pubchem assays (depositor defined):AID2097, AID2223, AID489010, AID492950]; assay type: functional
T2 sequence (P9WHJ3 whole entry): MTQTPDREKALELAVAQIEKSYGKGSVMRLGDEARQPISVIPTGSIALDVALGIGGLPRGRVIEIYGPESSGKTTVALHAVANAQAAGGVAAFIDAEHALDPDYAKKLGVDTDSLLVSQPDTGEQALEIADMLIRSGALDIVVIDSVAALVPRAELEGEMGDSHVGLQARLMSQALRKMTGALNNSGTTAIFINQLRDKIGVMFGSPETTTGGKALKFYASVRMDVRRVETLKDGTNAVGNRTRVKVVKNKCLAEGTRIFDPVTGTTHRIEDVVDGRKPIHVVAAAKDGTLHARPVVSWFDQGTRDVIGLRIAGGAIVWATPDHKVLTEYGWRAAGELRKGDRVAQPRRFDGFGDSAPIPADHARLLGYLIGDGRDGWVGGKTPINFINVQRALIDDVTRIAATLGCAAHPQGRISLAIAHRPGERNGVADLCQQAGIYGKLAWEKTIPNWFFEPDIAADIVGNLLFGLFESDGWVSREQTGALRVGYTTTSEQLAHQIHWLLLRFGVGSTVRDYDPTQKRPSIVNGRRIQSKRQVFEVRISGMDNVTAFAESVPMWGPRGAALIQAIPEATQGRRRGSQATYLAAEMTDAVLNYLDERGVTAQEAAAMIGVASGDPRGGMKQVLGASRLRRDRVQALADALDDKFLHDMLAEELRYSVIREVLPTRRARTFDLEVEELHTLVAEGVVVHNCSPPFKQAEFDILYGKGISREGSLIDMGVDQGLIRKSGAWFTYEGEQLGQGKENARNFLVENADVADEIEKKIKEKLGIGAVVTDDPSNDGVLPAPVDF

[2] = target: T3, Replicative DNA helicase DnaB (Mycobacterium tuberculosis, UniProt P9WMR3); assay: DnaB intein splicing inhibitors, dose response, biochemical, cell-free fluorescence (AID 449749); assay type: functional
T3 sequence (P9WMR3 whole entry): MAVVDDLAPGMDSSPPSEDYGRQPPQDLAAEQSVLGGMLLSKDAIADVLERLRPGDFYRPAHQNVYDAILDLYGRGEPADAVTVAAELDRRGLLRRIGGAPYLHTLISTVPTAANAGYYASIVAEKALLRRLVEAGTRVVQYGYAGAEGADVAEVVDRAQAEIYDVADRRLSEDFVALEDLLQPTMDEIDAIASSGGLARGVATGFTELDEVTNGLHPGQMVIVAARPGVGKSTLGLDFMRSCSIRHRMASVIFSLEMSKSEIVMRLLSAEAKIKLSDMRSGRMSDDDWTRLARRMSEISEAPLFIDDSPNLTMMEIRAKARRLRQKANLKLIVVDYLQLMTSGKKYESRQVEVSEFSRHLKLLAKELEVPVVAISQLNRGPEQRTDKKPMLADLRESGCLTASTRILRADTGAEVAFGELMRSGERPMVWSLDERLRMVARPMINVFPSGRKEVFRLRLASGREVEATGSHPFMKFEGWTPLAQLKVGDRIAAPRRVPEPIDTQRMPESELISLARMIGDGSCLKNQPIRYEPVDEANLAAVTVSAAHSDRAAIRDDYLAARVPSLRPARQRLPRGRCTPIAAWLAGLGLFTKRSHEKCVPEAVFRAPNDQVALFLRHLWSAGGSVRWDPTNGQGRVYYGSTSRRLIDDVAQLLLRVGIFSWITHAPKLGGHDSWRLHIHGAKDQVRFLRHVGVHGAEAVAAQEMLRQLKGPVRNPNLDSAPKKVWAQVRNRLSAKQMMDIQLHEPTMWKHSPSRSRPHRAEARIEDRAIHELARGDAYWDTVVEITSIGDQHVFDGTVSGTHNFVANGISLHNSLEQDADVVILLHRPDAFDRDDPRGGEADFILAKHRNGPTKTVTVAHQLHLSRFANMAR

Cytochrome P450 2C19 = Cytochrome P450 2C19 (Homo sapiens, UniProt P33261); assay: Cytochrome panel assay with activity outcomes. Panel member name: p450-cyp2c19 Compounds with AC50 equal or less than 10 uM are considered active; assay type: functional; conditions: read-out: AC50
Sequence of Cytochrome P450 2C19 (P33261 whole entry): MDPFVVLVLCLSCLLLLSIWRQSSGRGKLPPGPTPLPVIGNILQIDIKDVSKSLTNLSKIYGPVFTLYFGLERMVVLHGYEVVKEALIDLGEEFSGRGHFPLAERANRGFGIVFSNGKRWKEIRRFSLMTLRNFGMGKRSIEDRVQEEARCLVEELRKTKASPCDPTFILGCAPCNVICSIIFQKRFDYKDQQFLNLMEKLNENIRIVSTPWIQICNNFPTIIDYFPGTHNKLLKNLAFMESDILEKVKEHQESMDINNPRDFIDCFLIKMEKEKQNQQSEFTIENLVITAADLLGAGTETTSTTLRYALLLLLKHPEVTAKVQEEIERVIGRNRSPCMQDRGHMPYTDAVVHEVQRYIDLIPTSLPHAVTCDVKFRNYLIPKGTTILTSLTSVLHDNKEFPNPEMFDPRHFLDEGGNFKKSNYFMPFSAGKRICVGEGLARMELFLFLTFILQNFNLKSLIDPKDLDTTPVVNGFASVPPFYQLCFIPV

Cytochrome P450 3A4 = Cytochrome P450 3A4 (Homo sapiens, UniProt P08684);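 further: CYP3A4 tested as one member of a cytochrome P450 panel screen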
Sequence of Cytochrome P450 3A4 (P08684 whole entry): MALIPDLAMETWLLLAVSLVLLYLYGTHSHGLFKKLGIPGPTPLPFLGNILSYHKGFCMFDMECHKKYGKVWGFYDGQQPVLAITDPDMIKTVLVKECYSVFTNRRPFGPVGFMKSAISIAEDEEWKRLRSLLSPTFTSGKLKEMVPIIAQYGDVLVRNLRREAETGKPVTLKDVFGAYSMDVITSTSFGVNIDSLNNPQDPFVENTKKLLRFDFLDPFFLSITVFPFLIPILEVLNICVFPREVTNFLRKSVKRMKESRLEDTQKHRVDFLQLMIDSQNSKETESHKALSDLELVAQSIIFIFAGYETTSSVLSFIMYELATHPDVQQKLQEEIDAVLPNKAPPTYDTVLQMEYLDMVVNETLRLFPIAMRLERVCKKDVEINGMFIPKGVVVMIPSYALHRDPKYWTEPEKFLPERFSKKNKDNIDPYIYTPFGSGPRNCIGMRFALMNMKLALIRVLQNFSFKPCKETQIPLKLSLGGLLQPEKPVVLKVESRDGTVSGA

[3] = tested on: Streptococcus sp. 'group A'; assay: growth inhibition of control SK(-) GAS strain, dose response, counter-screen for streptokinase expression inhibitor project, luminescence, kanamycin, BacTiterGlo, confirmation (AID 1900); assay type: functional, organism-based
Streptococcus = assay: Group A Streptococcus viability loss, dose response, counter-screen for streptokinase expression inhibitor project, luminescence, BacTiterGlo (AID 1915); assay type: functional, organism-based;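 further: potency for reduction of bacterial viability or growth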
Streptokinase A = target: T4, Streptokinase A (Streptococcus pyogenes serotype M1, UniProt P10520); assay: S. pyogenes streptokinase expression inhibitors, potency, dose response, plasminogen activation absorbance, OD405 (AID 1914); assay type: functional, Streptococcus pyogenes M1 GAS;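 further: secreted streptokinase activity via plasminogen activation per viability signal from cell pellet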
T4 sequence (P10520 whole entry): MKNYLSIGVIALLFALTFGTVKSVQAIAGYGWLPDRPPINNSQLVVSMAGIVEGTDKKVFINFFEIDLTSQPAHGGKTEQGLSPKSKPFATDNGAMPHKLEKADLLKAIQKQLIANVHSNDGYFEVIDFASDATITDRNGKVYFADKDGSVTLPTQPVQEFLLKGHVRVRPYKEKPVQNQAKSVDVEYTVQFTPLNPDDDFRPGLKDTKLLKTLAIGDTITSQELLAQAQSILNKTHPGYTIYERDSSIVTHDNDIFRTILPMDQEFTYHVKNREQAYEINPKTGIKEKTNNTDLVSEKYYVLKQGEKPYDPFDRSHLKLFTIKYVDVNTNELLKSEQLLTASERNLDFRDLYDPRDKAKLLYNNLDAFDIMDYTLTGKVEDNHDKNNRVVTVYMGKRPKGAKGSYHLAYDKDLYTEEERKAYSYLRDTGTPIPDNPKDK

[4] = cytotoxicity toward NIH3T3 fibroblasts, dose response, counter-screen, cell-based, ATP luminescence, mouse fibroblasts (AID 2010); assay type: functional;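 further: cells exposed to compound for about 90 hours before reading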
[5] = inhibitors of intracellular T. cruzi replication, confirmation, NIH3T3 host cells, beta-gal luminescence (AID 2044); assay type: functional, cell-based;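 further: intracellular parasites grown in NIH/3T3 mouse fibroblasts as host cells; luminescent beta-galactosidase reporter signal from transgenic T. cruzi replicating inside host cells; inhibitors lower the luminescence signal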
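Wherever IC50 is given: confirmatory concentration-response retest of ultra-high-throughput screening hits for modulation of myocardial damage; cell death induced by hydrogen peroxide oxidative stress; compound pretreatment for 60 min then peroxide exposure for 2 h; potency is for protecting the cells against peroxide damage rather than for killing them.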

## COc1ccc(/C=C/C(=O)N2CCN(c3ccccn3)CC2)cc1OC
[1]
  EC50: > 195 µM (not active)

## COc1cc2c(cc1OC)CN(c1nc(-c3cccnc3)nc3ccccc13)CC2
H9c2
  IC50: > 79 µM (inactive)

## CCOC(=O)Cc1n[nH]c2c1C(c1cccc(OC)c1OC)C(C#N)=C(N)O2 (stereo not drawn)
Protein RecA
  EC50: > 380 µM (inactive)
[2]
  AC50: 34.7 µM (inconclusive)

## COC(=O)c1ccccc1S(=O)(=O)N1CCC(NC(=O)c2ccccc2)CC1
Protein RecA
  EC50: 15.1 µM (active)
[2]
  AC50: 3.36 µM (active)

## CCOC(=O)c1[nH]c2cc(OC)c(OC)cc2c1NC(=O)C(C)N1CCN(Cc2ccccc2)CC1 (stereo not drawn)
H9c2
  IC50: 10.2 µM (active)

## CC(C)c1ccccc1NC(=O)COC(=O)c1c2c(nc3ccccc13)CCN(Cc1ccccc1)C2
H9c2
  IC50: > 79 µM (inactive)

## Cc1cccc(Sc2c(C=O)c3ccccc3n2C)c1
Protein RecA
  EC50: 29.6 µM (active)
[2]
  AC50: 5.7 µM (active)

## O=C(Cn1cccc1)NC1CCCCCC1
Cytochrome P450 2C19
  AC50: 6.31 µM (inconclusive)
Cytochrome P450 3A4
  AC50: 17.8 µM (inconclusive)

## Cc1c(C(=O)Nc2ccc3nc(N4CCOCC4)sc3c2)oc2ccccc12
H9c2
  IC50: > 79 µM (inactive)

## CC(C)c1nc2ccccc2c2nnc(SCC(=O)NCc3ccco3)n12
[1]
  EC50: > 195 µM (not active)

## COc1cc(/C=C(\C#N)C(=O)Nc2ccccc2)ccc1OCCN1CCOCC1
H9c2
  IC50: > 79 µM (inactive)

## Oc1ncnc2sc3c(c12)CCC3
H9c2
  IC50: 23 µM (active)

## CC(C)c1ccc(OCCCN2CCCC2)cc1
[1]
  EC50: > 195 µM (not active)

## COc1ccc(C2NC(S)=NC3=C2CCc2ccccc23)cc1OC (stereo not drawn)
Protein RecA
  EC50: 11.2 µM (active)
[2]
  AC50: 20 µM (active)

## CCn1cc(C(=O)OCC(=O)c2cc(C)n(-c3cccc(C(F)(F)F)c3)c2C)c(=O)c2ccc(C)nc21
[3]
  EC50: 5.68 µM (active)
Streptococcus
  EC50: > 50 µM (not active)
Streptokinase A
  EC50: 21.6 µM (active)

## COc1ccccc1CNC(=O)N1CCN(c2ccccc2C)CC1
[1]
  EC50: > 195 µM (not active)

## Cc1cccc2sc(NC(=O)[C@H](C)N3C(=O)C4CC=CCC4C3=O)nc12 (stereo partly drawn)
[1]
  EC50: > 195 µM (not active)

## CCCC(C)NS(=O)(=O)c1ccccc1 (stereo not drawn)
[1]
  EC50: > 195 µM (not active)

## COC(=O)c1[nH]c2ccccc2c1NC(=O)CNC1CCCCC1
H9c2
  IC50: > 79 µM (inactive)

## C=CCC(Nc1ccccc1)c1ccc(OC)c(OC)c1 (stereo not drawn)
[1]
  EC50: > 195 µM (not active)

## CSc1ncccc1C(=O)N1CCCC(N2CCN(c3ccccc3F)CC2)C1 (stereo not drawn)
[1]
  EC50: > 195 µM (not active)

## O=C1CC(CSc2ccc(Cl)cc2)=NN1
Protein RecA
  EC50: 1.61 µM (active)
[2]
  AC50: 3.23 µM (active)

## Cc1ccc(CSC(=N)Nc2ccccc2)cc1C
Cytochrome P450 3A4
  AC50: 3.16 µM (inconclusive)

## COc1cccc(CNC(=O)c2ccccc2SCC(=O)N2CCCC2)c1
[1]
  EC50: > 195 µM (not active)

## COc1ccc([N+](=O)[O-])cc1NC(=O)C(C)OC(=O)Cn1[nH]c(=O)c2ccccc2c1=O (stereo not drawn)
H9c2
  IC50: > 79 µM (inactive)

## CCCc1n[nH]c2c1C(c1ccc(OCCN3CCOCC3)c(OC)c1)C(C#N)=C(N)O2 (stereo not drawn)
Protein RecA
  EC50: 9.37 µM (active)
[2]
  AC50: 41.4 µM (active)

## Cc1ccc(C)c(C(=O)Nc2cc(C)nn2-c2nc(C)cc(C)n2)c1
H9c2
  IC50: > 79 µM (inactive)
[1]
  EC50: > 195 µM (not active)

## CO[C@H]1COC(=O)[C@@H](C)COC(=O)[C@@H](Cc2ccccc2)NC(=O)C/C=C\[C@H]1C
Cytochrome P450 3A4
  AC50: 6.31 µM (inconclusive)

## COc1ccc(N2C(=O)CC(NNc3ncc(Cl)cc3Cl)C2=O)cc1 (stereo not drawn)
[1]
  EC50: > 195 µM (not active)

## CSc1n[nH]c(-c2sccc2OCc2ccc(C)cc2)n1
Cytochrome P450 3A4
  AC50: 20 µM (inconclusive)

## CCOc1cc(/C=C/c2ccc3cccc([N+](=O)[O-])c3n2)ccc1OCC(=O)N(C)C
H9c2
  IC50: 10.7 µM (active)

## O=C(O)C1CSC(c2ccc3c(c2)OCO3)N1 (stereo not drawn)
[1]
  EC50: > 195 µM (not active)

## O=C(O)CSc1c2c(nc3cc(C(=O)Nc4cccc(C(F)(F)F)c4)ccc13)CCCC2
Protein RecA
  EC50: 13 µM (active)
[2]
  AC50: 22.6 µM (active)

## COc1ccc(-c2cc(-c3ccc(O)cc3)nc(N)c2C#N)cc1OC
H9c2
  IC50: > 79 µM (inactive)

## CCS(=O)(=O)N1CCC2(CC1)OCCN2S(=O)(=O)c1ccc(OC)cc1
[1]
  EC50: > 195 µM (not active)

## CCOc1cc(C(=S)N2CCOCC2)ccc1OS(=O)(=O)c1ccc(OC)cc1
[1]
  EC50: > 195 µM (not active)

## Cc1ccc(CS(=O)(=O)CCC(=O)NCc2ccccn2)cc1
Cytochrome P450 3A4
  AC50: 31.6 µM (inconclusive)

## CCN(CC(=O)Nc1c(F)cccc1F)C(=O)Cn1[nH]c(=O)c2ccccc2c1=O
H9c2
  IC50: > 79 µM (inactive)

## COc1cccc(-c2cnc3c(NC=O)cc(-c4cc(C)c(O)c(C)c4)cn23)c1
H9c2
  IC50: > 79 µM (inactive)

## Cc1cc(C)nc(SCc2ccc(C(=O)N/N=C/c3ccccn3)cc2)n1
H9c2
  IC50: > 79 µM (inactive)

## O=C(N/N=C/c1ccco1)/C(=C/c1cccc([N+](=O)[O-])c1)NC(=O)c1ccccc1
Cytochrome P450 2C19
  AC50: 1 µM (inconclusive)
Cytochrome P450 3A4
  AC50: 1.12 µM (inconclusive)

## CCOC(=O)/C(=N\Nc1ccc(OC)cc1)c1csc(Nc2ccccc2)n1
[3]
  EC50: 3.87 µM (active)
Streptococcus
  EC50: 10.8 µM (active)
[4]
  EC50: 9.87 µM (active)
[5]
  EC50: 1.33 µM (active)
Streptokinase A
  EC50: > 150 µM (not active)

Source: ChEMBL document CHEMBL1201862, “PubChem BioAssay data set” (2004)
